Measured values reported in patent US11339171B2, “MDM2 inhibitors” (Gan & Lee Pharmaceuticals, priority 2017, dated 2022).
“And” between values parts separate entries of the source, which are not always exact repeats. Equal values may be shown once. Read-outs that look alike come from different tables or passages of the source.

What was measured:
[1] = test system: human osteosarcoma cell line SJSA-1; assay: Inhibition of proliferation of human osteosarcoma cell line SJSA-1 (DAPI staining, In Cell Analyzer); conditions: Homo sapiens, SJSA-1, 72 h, read-out: IC50 (nM), inhibitory activity on proliferation of human osteosarcoma cell line SJSA-1, SJSA-1, incubated 72 h
MDM2 = molecular target: T1, MDM2 (Homo sapiens, UniProt Q00987); assay: Inhibition test of MDM2-P53 (GST-MDM2, Biotin-P53, Anti-GST-Tb, SA-XL665); assay type: binding
T1 construct: made in house
T1 sequence (Q00987 whole entry): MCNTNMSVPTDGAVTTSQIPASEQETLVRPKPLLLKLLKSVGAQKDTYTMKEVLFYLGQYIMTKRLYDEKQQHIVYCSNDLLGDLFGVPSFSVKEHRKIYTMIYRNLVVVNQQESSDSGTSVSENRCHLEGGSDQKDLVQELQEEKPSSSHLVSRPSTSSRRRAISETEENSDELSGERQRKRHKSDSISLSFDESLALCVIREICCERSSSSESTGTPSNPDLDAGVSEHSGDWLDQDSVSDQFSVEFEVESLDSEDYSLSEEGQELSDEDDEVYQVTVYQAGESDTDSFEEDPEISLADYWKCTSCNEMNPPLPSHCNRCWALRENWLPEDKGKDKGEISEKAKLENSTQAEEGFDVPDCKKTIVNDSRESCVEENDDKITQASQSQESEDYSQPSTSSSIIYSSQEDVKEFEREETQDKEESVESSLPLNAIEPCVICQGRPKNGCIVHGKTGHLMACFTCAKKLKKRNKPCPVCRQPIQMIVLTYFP
How it was run: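 Binding was measured by TR-FRET with GST-MDM2 at 4 nM final in PBS with 0.1% BSA, 5 mM DTT and 1 mM AEBSF. Compounds were tested as twelve-point 5-fold dilutions and incubated with the detection mix for 90 min at 25 °C with shaking before plate-reader reading and curve fitting.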

[2] = Pharmacokinetics in ICR mice after intravenous and intragastric administration; assay type: in vivo; conditions: for F*: PO 5 mg/kg vs IV 2 mg/kg; for MRT last: read-out: MRT(0-t); for MRT inf: read-out: MRT(0-∞); for Vd: read-out: Vz
Method: Experimental Example 3 Determination of the Pharmacokinetics of the Mdm2 Inhibitors of the Present Invention in Mice
ICR mice were used as the test animals, and the concentrations of the drugs in plasma of mice at different time points after intravenous administration and intragastric administration of the representative compounds were measured by a LC/MS/MS method, so as to study the pharmacokinetic behavior of the compounds of the present invention in mice and evaluate the pharmacokinetic characteristics thereof.
Some compounds prepared in Examples 1-180 of the present invention.
The control drug HDM201 was prepared by the method disclosed in patent No. CN104203952A.
Healthy adult ICR mice, male, 6-9 weeks old, weighing 20-30 g, purchased from Shanghai Xipuer-Bikai Laboratory Animal Co., Ltd., Animal Production License No.: SCXK (HU) 2013-0016
3.2.3 Preparation of Test Drugs
Intragastric or intravenous administration: an appropriate amount of sample was weighed, dissolved in 5% DMSO+40% PEG400+55% (10% HP-β-CD in Saline) to prepare a 0.5 mg/ml solution for intragastric or intravenous administration.
3.2.4 Administration of Test Drugs
Intravenous administration: for each test compound, 3 male ICR mice were administered intravenously at a dose of 2 mg/kg and an administration volume of […] after fasting overnight.
Intragastric administration: for each test compound, 3 male ICR mice were administered intragastrically at a dose of 5 mg/kg and an administration volume of […] after fasting overnight.
3.3 Experimental Operation
The collected plasma was stored at −80° C. before analysis. The plasma sample was analyzed by LC-MS/MS, and the sample was pretreated by protein precipitation method. The linear range of sample analysis was 1 to 2000 ng/ml. The lowest quantification limit was 1 ng/mL. WinNonlin (Pharsight, USA) was used to calculate the following pharmacokinetic parameters: area under the curve AUC(0-t), area under the curve AUC(0-∞), half-life t1/2, retention time MRT(0-∞), blood drug concentration Cmax, time taken to reach the peak blood drug concentration Tmax, bioavailability F, apparent volume of distribution Vz, and clearance rate CL.

[3] = IV 2 mg/kg, ICR mice, individual animal, 2 mg/kg
[4] = PO 5 mg/kg, ICR mice, individual animal, 5 mg/kg
[5] = male, ICR, mouse, plasma, iv, 2 mg/kg, IV 2 mg/kg, ICR mice, Mean
[6] = male, ICR, mouse, plasma, iv, 2 mg/kg, IV 2 mg/kg, ICR mice, Mean, read-out: AUC(0-t)
[7] = male, ICR, mouse, plasma, iv, 2 mg/kg, IV 2 mg/kg, ICR mice, Mean, read-out: Cmax
[8] = male, ICR, mouse, plasma, iv, 2 mg/kg, IV 2 mg/kg, ICR mice, Mean, read-out: Tmax
[9] = male, ICR, mouse, plasma, iv, 2 mg/kg, IV 2 mg/kg, ICR mice, Mean, read-out: t1/2 (converted)
[10] = male, ICR, mouse, plasma, iv, 2 mg/kg, IV 2 mg/kg, ICR mice, individual animal
[11] = male, ICR, mouse, plasma, iv, 2 mg/kg, IV 2 mg/kg, ICR mice, individual animal, read-out: AUC(0-t)
[12] = male, ICR, mouse, plasma, iv, 2 mg/kg, IV 2 mg/kg, ICR mice, individual animal, read-out: Cmax
[13] = male, ICR, mouse, plasma, iv, 2 mg/kg, IV 2 mg/kg, ICR mice, individual animal, read-out: t1/2 (converted)
[14] = male, ICR, mouse, plasma, po, 5 mg/kg, PO 5 mg/kg, ICR mice, Mean
[15] = male, ICR, mouse, plasma, po, 5 mg/kg, PO 5 mg/kg, ICR mice, Mean, read-out: AUC(0-t)
[16] = male, ICR, mouse, plasma, po, 5 mg/kg, PO 5 mg/kg, ICR mice, Mean, read-out: Cmax
[17] = male, ICR, mouse, plasma, po, 5 mg/kg, PO 5 mg/kg, ICR mice, Mean, read-out: Tmax
[18] = male, ICR, mouse, plasma, po, 5 mg/kg, PO 5 mg/kg, ICR mice, Mean, read-out: t1/2 (converted)
[19] = male, ICR, mouse, plasma, po, 5 mg/kg, PO 5 mg/kg, ICR mice, individual animal
[20] = male, ICR, mouse, plasma, po, 5 mg/kg, PO 5 mg/kg, ICR mice, individual animal, read-out: Tmax
[21] = male, ICR, mouse, plasma, po, 5 mg/kg, PO 5 mg/kg, ICR mice, individual animal, read-out: t1/2 (converted)
[22] = male, ICR, mouse, plasma, po, 5 mg/kg, oral intragastric administration 5 mg/kg, read-out: AUC0-t
[23] = male, ICR, mouse, plasma, po, 5 mg/kg, oral intragastric administration 5 mg/kg, read-out: half-life (converted)

For `COc1ncc(-c2nc3c(n2C(C)C)[C@@]2(C(=O)Nc4cc(Cl)ccc42)N(c2cccc(Cl)c2)C3=O)c(OC)n1` [Example S-1, (S)-6-chloro-5′-(3-chlorophenyl)-2′-(2,4-dimethoxypyrimidin-5-yl)-3′-isopropyl-3′H-spiro[dihydroindole-3,4′-pyrrolo[3,4-d]imidazole]-2,6′(5′H)-dione], the IC50 [1] was 39.6 nM, the IC50 (MDM2) was 2.21 nM and the “AUC(0-t)” value [2, 3] was 843.53 ng·h/mL and 532.69 ng·h/mL. For the same compound, the “AUC(0-∞)” value [2, 3] was 855.63 ng·h/mL and 548.82 ng·h/mL, the CL [2, 3] was 2337.47 mL/h/kg and 3644.18 mL/h/kg and the Cmax [2, 3] was 336.17 ng/mL and 307.80 ng/mL. For the same compound, the “MRT(0-t)” value [2, 3] was 1.34 h, the “MRT(0-∞)” value [2, 3] was 1.43 h and 1.52 h and the Vz [2, 3] was 3308.82 mL/kg and 6380.69 mL/kg. For the same compound, the t1/2 [2, 3] was 0.98 h and 1.21 h, the “F*” value ([2]; ICR mice) was 76.30% and the “AUC(0-t)” value [2, 4] was 1822.90 ng·h/mL and 1944.41 ng·h/mL and 241.17 ng·h/mL. The “AUC(0-∞)” value [2, 4] was 1834.25 ng·h/mL and 2088.41 ng·h/mL and 330.15 ng·h/mL, the Cmax [2, 4] was 629.23 ng/mL and 471.21 ng/mL and 92.81 ng/mL and the “MRT(0-t)” value [2, 4] was 2.60 h and 1.79 h. For the same compound, the “MRT(0-∞)” value [2, 4] was 3.17 h and 3.13 h, the t1/2 [2, 4] was 1.98 h and 1.92 h and the AUC(0-inf) [2, 5] was 714 ng·h/mL. For the same compound, the clearance [2, 5] was 48.3 mL/min/kg, the AUC(0-t) [2, 6] was 700 ng·h/mL and the Cmax [2, 7] was 325 ng/mL. For the same compound, the MRT last [2, 5] was 1.33 h, the MRT inf [2, 5] was 1.45 h and the Tmax [2, 8] was 0.083 h. For the same compound, the Vd [2, 5] was 4.54 L/kg, the half-life [2, 9] was 64.2 min and the AUC(0-inf) [2, 10] was 737 ng·h/mL. It also gave a clearance [2, 10] of 45.2 mL/min/kg, an AUC(0-t) [2, 11] of 725 ng·h/mL and a Cmax [2, 12] of 330 ng/mL. It also gave an MRT last [2, 10] of 1.31 h, an MRT inf [2, 10] of 1.41 h and a Tmax ([2]; male, ICR, mouse, plasma, iv, 2 mg/kg, IV 2 mg/kg, ICR mice, individual animal, read-out: Tmax) of 0.08 h. It also gave a Vd [2, 10] of 3.92 L/kg, a half-life [2, 13] of 60 min and an AUC(0-inf) [2, 14] of 1420 ng·h/mL. For the same compound, the AUC(0-t) [2, 15] was 1340 ng·h/mL, the Cmax [2, 16] was 398 ng/mL and the MRT last [2, 14] was 2.11 h. For the same compound, the MRT inf [2, 14] was 2.76 h, the Tmax [2, 17] was 1 h and the half-life [2, 18] was 98.4 min. For the same compound, the MRT last [2, 19] was 1.94 h, the MRT inf [2, 19] was 1.99 h and the Tmax [2, 20] was 1 h. The half-life [2, 21] was 61.8 min, the AUC(0-t) [2, 22] was 1340 ng·h/mL and the half-life [2, 23] was 98.4 min.
For `COc1ncc(-c2nc3c(n2C(C)C)[C@@]2(C(=O)Nc4cc(Cl)ccc42)N(c2cc(Cl)ccc2C)C3=O)c(OC)n1` [Example S-2, (S)-6-chloro-5′-(5-chloro-2-methylphenyl)-2′-(2,4-dimethoxypyrimidin-5-yl)-3′-isopropyl-3′H-spiro[dihydroindole-3,4′-pyrrolo[3,4-d]imidazole]-2,6′(5′H)-dione], the IC50 [1] was 7.4 nM, the IC50 (MDM2) was 1.13 nM and the “AUC(0-t)” value [2, 3] was 1477.86 ng·h/mL and 1362.57 ng·h/mL. For the same compound, the “AUC(0-∞)” value [2, 3] was 1494.93 ng·h/mL and 1392.31 ng·h/mL, the CL [2, 3] was 1337.86 mL/h/kg and 1436.46 mL/h/kg and the Cmax [2, 3] was 456.11 ng/mL and 492.38 ng/mL. For the same compound, the “MRT(0-t)” value [2, 3] was 1.51 h, the “MRT(0-∞)” value [2, 3] was 1.54 h and 1.64 h and the Tmax [2, 3] was 0.50 h and 1.00 h and 0.08 h. The Vz [2, 3] was 1804.36 mL/kg and 2291.83 mL/kg, the t1/2 [2, 3] was 0.93 h and 1.11 h and the “F*” value ([2]; ICR mice) was 101.81%. The “AUC(0-t)” value [2, 4] was 3883.23 ng·h/mL and 4136.52 ng·h/mL, the “AUC(0-∞)” value [2, 4] was 4100.77 ng·h/mL and 4259.08 ng·h/mL and the Cmax [2, 4] was 729.77 ng/mL and 804.59 ng/mL. The “MRT(0-t)” value [2, 4] was 2.87 h and 2.76 h, the “MRT(0-∞)” value [2, 4] was 3.28 h and 2.97 h and the Tmax [2, 4] was 1.00 h. For the same compound, the t1/2 [2, 4] was 1.83 h and 1.50 h, the AUC(0-inf) [2, 5] was 1480 ng·h/mL and the clearance [2, 5] was 22.5 mL/min/kg. It also gave an AUC(0-t) [2, 6] of 1460 ng·h/mL, a Cmax [2, 7] of 475 ng/mL and an MRT last [2, 5] of 1.48 h. The MRT inf [2, 5] was 1.56 h, the Tmax [2, 8] was 0.528 h and the Vd [2, 5] was 1.88 L/kg. For the same compound, the half-life [2, 9] was 57.6 min, the AUC(0-inf) [2, 10] was 1560 ng·h/mL and the clearance [2, 10] was 21.3 mL/min/kg. The AUC(0-t) [2, 11] was 1550 ng·h/mL, the Cmax [2, 12] was 477 ng/mL and the MRT last [2, 10] was 1.47 h. It also gave an MRT inf [2, 10] of 1.51 h, a Vd [2, 10] of 1.55 L/kg and a half-life [2, 13] of 50.4 min. The AUC(0-inf) [2, 14] was 3870 ng·h/mL, the AUC(0-t) [2, 15] was 3730 ng·h/mL and the Cmax [2, 16] was 730 ng/mL. The MRT last [2, 14] was 2.84 h, the MRT inf [2, 14] was 3.12 h and the Tmax [2, 17] was 1.67 h. It also gave a half-life [2, 18] of 95.4 min, an AUC(0-inf) [2, 19] of 3250 ng·h/mL and an AUC(0-t) ([2]; male, ICR, mouse, plasma, po, 5 mg/kg, PO 5 mg/kg, ICR mice, individual animal, read-out: AUC(0-t)) of 3170 ng·h/mL. For the same compound, the Cmax ([2]; male, ICR, mouse, plasma, po, 5 mg/kg, PO 5 mg/kg, ICR mice, individual animal, read-out: Cmax) was 656 ng/mL, the MRT last [2, 19] was 2.89 h and the MRT inf [2, 19] was 3.09 h. For the same compound, the Tmax [2, 20] was 2 h, the half-life [2, 21] was 87 min and the AUC(0-t) [2, 22] was 3730 ng·h/mL. It also gave a half-life [2, 23] of 95.4 min and a bioavailability ([2]; male, ICR, mouse, plasma, oral intragastric administration 5 mg/kg, read-out: bioavailability) of 102%.
